According to article PMC10267570, “Characterization of the cholesterol biosynthetic pathway in Dioscorea transversa” (The Journal of Biological Chemistry, 2023):

Target: T1, CYP51Dt (D. transversa sterol 14α-demethylase)
T1 construct: gene CYP51; C-terminal hexa-histidine tag
Assay: UV–visible difference spectroscopy titration (type I spectrum) of purified P450; also turnover with CPRDt/NADPH by GC–MS
Assay type: binding, Dioscorea transversa

| SMILES | Kd [µM] |
| --- | --- |
| C=C(CC[C@@H](C)[C@H]1CC[C@@]2(C)C3=C(CC[C@]12C)[C@@]1(C)CC[C@H](O)[C@@H](C)[C@@H]1CC3)C(C)C [compound 7, obtusifoliol] | 0.8 ± 0.25 |
| CC(C)CCC[C@@H](C)[C@H]1CC[C@@]2(C)C3=C(CC[C@]12C)[C@@]1(C)CC[C@H](O)[C@@H](C)[C@@H]1CC3 [compound 19, 4-desmethyl-24,25-dihydrolanosterol] | 2.4 ± 0.18 |
